According to PubChem BioAssay (NCI):
Values joined by “and” are separate entries in the source; they are usually repeats but may differ in a detail not shown here. Equal entries are not always repeated.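 Exposure lasted 48 hours, with cells grown in 96-well plates and compounds tested at five concentrations. Here, GI50 denotes the concentration required for 50% inhibition of growth. TGI: total growth inhibition.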

Each molecule was assayed on MDA-MB-468 breast (assay: NCI tumour cell line growth inhibition, 48 h).
With `COc1ccc([C@H]2c3[nH]c4ccccc4c3C[C@H]3C(=O)N(CCCCCCC(=O)NO)CC(=O)N23)cc1` the GI50 was 1430 nM and the TGI was 18.5 µM. For `CC(=O)CCN1CC2CN=NC2(C#N)C1` (stereo not given), the GI50 was greater than 100000 nM and the TGI was greater than 100 µM. Work on `CN1CCC(C(=O)Nc2n[nH]c3nnc(-c4ccccc4)cc23)CC1` yielded a GI50 greater than 18100 nM and a TGI greater than 25 µM. With `Clc1cc(Cl)cc(Nc2ccc3c(OCCCN4CCOCC4)cccc3n2)c1` the GI50 was 2080 nM and the TGI was 4.33 µM. `O=C(/C=C/c1ccccn1)c1ccccc1` was tested, and the GI50 was 1800 nM and the TGI was 3.84 µM. Molecule `CCCCCCC1CCCCN1C(c1ccccc1)C(O)c1ccccc1` (stereo not given) has a GI50 of 3810 nM and a TGI of 14.4 µM. With `COc1ccccc1CNCCCN1C(=O)c2ccc3c4c(ccc(c24)C1=O)C(=O)N(CCCNCCCCN)C3=O` the GI50 was 90.7 nM and the TGI was 0.231 µM. Molecule `COc1cc(-c2ccc[nH]2)[nH]c1/C=C1\N=C(C)C(C(=O)NC(C)C)=C1C` has a GI50 of 2910 nM and a TGI of 16.8 µM. For `COc1ccc(-c2nc3sccn3c2/C=C/C(=O)c2cc(OC)c(OC)c(OC)c2)cc1`, the GI50 was 2440 nM and the TGI was 12.4 µM. Work on `Cc1ncc([N+](=O)[O-])n1CCOc1ccc(C(=O)/C=C/c2ccc(C(F)(F)F)cc2)cc1` yielded a GI50 of 3920 nM and a TGI of 21.8 µM. `CC(C)(C)OC(=O)CC(S(=O)(=O)c1ccccc1)S(=O)(=O)c1ccccc1` gave a GI50 of 1710 nM and a TGI of 3.2 µM. Work on `CNc1ccc(CSc2ccc(C)cc2)cc1` yielded a GI50 of 2750 nM and a TGI of 9.9 µM. Work on `CN(Cc1cnc2nc(N)nc(N)c2n1)c1c(Cl)cc(C(=O)NC(CCC(=O)O)C(=O)O)cc1Br` (stereo not given) yielded a GI50 of less than 11.8 nM and a TGI greater than 100 µM. `COc1ccc(C2CC(c3cccc(Nc4ccncc4)c3)=NN2c2ccccc2)cc1` (stereo not given) gave a GI50 of 1420 nM and a TGI of 2.82 µM. For `Cn1cc(C2=C(c3cccc([N+](=O)[O-])c3)C(=O)NC2=O)c2ccccc21`, the GI50 was 5850 nM and the TGI was greater than 25 µM. With `CC(C)(C)c1cnc(CSc2cnc(NC(=O)C3CCNCC3)s2)o1` the GI50 was 97 nM and 79.4 nM and the TGI was 0.344 µM and 0.306 µM. `Nc1nc2c([nH]1)c1[nH]c3ccccc3c1c1[nH]c3ccccc3c21` was tested, and the GI50 was 2020 nM and the TGI was 4.9 µM. With `COc1cc(C(=O)/C=C/c2c(C)n([O-])c3ccc(Cl)cc3[n+]2=O)cc(OC)c1OC` the GI50 was 3520 nM and the TGI was 19.3 µM. With `CN(C)CC(=O)N1CCc2c([nH]c3ccccc23)C1c1cccnc1` (stereo not given) the GI50 was 3860 nM and the TGI was 52.9 µM. In the case of `COc1ccc(-c2nn(-c3cccc(Cl)c3)cc2-c2c(C#N)c(=O)n3[nH]c(-c4ccc(C)o4)nc3c2C#N)cc1`, the GI50 was 1340 nM and the TGI was 4.93 µM. Work on `CCOC(=O)c1c(-c2ccc(Cl)cc2)c(C#N)c(=S)n(C2OC(COC(C)=O)C(OC(C)=O)C(OC(C)=O)C2OC(C)=O)c1C` (stereo not given) yielded a GI50 greater than 100000 nM and a TGI greater than 100 µM. Molecule `OCCN1CCCN(CCCN2c3ccccc3Sc3ccc(C(F)(F)F)cc32)CC1` has a GI50 of 1610 nM and a TGI of 3.57 µM. `O=[N+]([O-])/C(=C/C=C/c1ccccc1)c1ccccc1` showed a GI50 of 1250 nM and a TGI of 3.09 µM. For `O=C(Nc1ccc(-n2cc(-c3ccncc3)c(-c3ccc(Cl)c(O)c3)n2)cc1)c1ccc(Cl)c(Cl)c1`, the GI50 was 4430 nM and the TGI was greater than 100 µM. With `Cc1nc2sc(C(=O)Nc3cccc(Cl)c3)c(N)c2cc1C(O)c1ccccc1` (stereo not given) the GI50 was 486 nM and the TGI was 20.1 µM. For `COc1cc2c(cc1OC)C(Sc1ccc(Cl)cc1)c1c(nc(N)c(C#N)c1N)O2` (stereo not given), the GI50 was 794 nM and the TGI was 2.7 µM. `COc1cc(C(=O)Nc2ccc(-c3nc4ccccc4[nH]3)cc2)cc(OC)c1OC` gave a GI50 of 11900 nM and a TGI of 28.4 µM. `C=C(c1ccc(C(=O)NCCCn2ccnc2)cc1)c1cc2c(cc1C)C(C)(C)CCC2(C)C` showed a GI50 of 1040 nM and a TGI of 3.24 µM. Molecule `C#CCN(CCCOc1ccc(Cl)cc1Cl)CCCSC(=O)CCCCCN1/C(=C\C=C2/CCCC(/C=C/C3=[N+](CCCCCC(=O)[O-])c4ccccc4C3(C)C)=C2Cl)C(C)(C)c2ccccc21` has a GI50 of 1350 nM and a TGI of 3.67 µM. With `COc1cc(/C=C/C(=O)/C=C/c2ccc(-n3ccnc3)cc2)ccc1O` the GI50 was 2200 nM and the TGI was 5.36 µM.
